# Results: ChEMBL document CHEMBL5137050, “Hematopoietic Progenitor Kinase 1 in Tumor Immunology: A Medicinal Chemistry Perspective” (J Med Chem, 2022)
# Key:
# [1] = target: T1, Mitogen-activated protein kinase kinase kinase kinase 1 (Homo sapiens, UniProt Q92918); experiment: Inhibition of full-length phosphorylated HPK1 (unknown origin)
# [2] = target: Tyrosine-protein kinase Lck (Homo sapiens, UniProt P06239); experiment: Inhibition of LCK (unknown origin)
# [3] = target: T2, Tyrosine-protein kinase ZAP-70 (Homo sapiens, UniProt P43403); experiment: Inhibition of ZAP70 (unknown origin)
# T2 sequence (P43403 whole entry): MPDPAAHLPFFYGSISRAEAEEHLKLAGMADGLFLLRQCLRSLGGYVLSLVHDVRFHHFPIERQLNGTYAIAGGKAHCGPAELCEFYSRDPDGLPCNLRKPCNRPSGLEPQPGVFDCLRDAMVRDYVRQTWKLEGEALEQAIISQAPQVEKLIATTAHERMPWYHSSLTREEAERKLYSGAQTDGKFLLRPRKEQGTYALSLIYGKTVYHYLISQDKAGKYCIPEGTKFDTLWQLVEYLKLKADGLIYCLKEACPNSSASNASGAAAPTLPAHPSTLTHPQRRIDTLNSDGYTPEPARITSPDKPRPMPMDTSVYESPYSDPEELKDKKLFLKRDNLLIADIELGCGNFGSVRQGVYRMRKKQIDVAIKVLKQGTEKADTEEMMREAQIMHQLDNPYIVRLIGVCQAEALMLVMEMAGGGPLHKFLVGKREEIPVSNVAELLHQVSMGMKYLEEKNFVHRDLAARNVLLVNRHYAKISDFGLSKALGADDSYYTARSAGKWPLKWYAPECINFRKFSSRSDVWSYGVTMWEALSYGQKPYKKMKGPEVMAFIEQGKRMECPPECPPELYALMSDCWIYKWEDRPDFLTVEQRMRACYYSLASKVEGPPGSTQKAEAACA
# [4] = target: T1, Mitogen-activated protein kinase kinase kinase kinase 1; experiment: Inhibition of full-length unphosphorylated HPK1 (unknown origin) by scintillation proximity assay
# [5] = target: T3, Tyrosine-protein kinase ITK/TSK (Homo sapiens, UniProt Q08881); experiment: Inhibition of ITK (unknown origin)
# T3 sequence (Q08881 whole entry): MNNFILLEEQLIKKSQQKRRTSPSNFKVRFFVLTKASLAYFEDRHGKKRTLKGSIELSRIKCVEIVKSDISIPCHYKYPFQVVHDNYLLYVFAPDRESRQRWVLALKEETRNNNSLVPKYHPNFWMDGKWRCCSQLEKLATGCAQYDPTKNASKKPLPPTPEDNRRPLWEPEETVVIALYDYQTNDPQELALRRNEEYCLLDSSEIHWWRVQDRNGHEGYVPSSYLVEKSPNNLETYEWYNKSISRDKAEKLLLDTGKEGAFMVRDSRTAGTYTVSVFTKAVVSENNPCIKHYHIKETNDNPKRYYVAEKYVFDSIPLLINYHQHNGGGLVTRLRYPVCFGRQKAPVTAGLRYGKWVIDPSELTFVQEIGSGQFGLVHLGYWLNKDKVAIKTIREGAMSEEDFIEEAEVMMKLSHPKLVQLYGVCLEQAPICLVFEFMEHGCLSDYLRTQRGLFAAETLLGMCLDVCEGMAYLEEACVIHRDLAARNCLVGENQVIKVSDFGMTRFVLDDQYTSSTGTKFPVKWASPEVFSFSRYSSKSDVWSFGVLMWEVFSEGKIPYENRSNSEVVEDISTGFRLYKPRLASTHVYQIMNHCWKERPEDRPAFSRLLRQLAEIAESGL
# [6] = target: T1, Mitogen-activated protein kinase kinase kinase kinase 1; experiment: Inhibition of HPK1 (unknown origin) preincubated for 15 mins measured after 90 mins by ADP-Glo kinase assay
# [7] = target: T1, Mitogen-activated protein kinase kinase kinase kinase 1; experiment: Inhibition of HPK1 in human Jurkat E6.1 cells assessed as inhibition of SLP76 phosphorylation treated for 4 hrs by HTRF assay; format: cell-based
# T1 sequence (Q92918 whole entry): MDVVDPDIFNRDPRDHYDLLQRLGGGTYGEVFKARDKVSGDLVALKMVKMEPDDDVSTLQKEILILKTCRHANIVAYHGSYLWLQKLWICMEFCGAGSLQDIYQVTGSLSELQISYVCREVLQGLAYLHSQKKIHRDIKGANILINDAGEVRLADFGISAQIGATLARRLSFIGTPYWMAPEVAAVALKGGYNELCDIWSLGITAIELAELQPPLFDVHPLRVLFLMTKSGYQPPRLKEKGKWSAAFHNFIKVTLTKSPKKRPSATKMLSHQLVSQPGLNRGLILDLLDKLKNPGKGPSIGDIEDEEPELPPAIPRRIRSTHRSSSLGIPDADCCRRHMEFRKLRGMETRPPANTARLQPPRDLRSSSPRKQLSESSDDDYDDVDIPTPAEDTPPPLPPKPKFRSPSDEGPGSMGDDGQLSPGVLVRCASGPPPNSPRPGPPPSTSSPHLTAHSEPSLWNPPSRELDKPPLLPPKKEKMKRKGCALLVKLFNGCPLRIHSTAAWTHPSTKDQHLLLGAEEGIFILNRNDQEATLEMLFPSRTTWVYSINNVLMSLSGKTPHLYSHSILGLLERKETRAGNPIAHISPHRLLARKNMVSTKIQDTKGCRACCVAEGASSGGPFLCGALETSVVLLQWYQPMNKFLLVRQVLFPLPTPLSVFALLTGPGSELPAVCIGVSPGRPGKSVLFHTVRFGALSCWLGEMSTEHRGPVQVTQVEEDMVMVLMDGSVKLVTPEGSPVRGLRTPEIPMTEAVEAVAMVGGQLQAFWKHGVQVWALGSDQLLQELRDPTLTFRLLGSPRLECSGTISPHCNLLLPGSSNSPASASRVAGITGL
# Tyrosine-protein kinase Lck, sequence (P06239 whole entry): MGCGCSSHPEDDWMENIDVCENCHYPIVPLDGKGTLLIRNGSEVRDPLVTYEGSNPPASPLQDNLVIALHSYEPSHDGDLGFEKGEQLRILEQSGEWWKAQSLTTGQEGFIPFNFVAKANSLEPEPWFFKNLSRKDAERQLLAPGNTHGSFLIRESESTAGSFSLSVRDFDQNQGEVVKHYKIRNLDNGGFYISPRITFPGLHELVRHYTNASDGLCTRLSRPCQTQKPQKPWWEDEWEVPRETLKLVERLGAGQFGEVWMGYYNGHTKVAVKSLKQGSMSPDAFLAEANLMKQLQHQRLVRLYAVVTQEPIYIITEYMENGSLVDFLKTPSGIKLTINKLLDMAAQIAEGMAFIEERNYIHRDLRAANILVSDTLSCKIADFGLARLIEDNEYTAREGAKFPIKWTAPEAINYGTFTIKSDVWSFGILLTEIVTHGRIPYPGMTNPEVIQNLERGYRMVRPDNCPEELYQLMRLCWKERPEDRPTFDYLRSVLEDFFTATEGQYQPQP
SMILES,IC50 [1],IC50 [2],IC50 [3],IC50 [4],IC50 [5],IC50 [6],IC50 [7]
Cc1[nH]c2nnc(C)n2c(=O)c1CC(=O)Nc1ncc(Cc2ccccc2F)s1,29 µM,> 49.5 µM,> 49.5 µM,1200 nM,> 49.5 µM,,
CN1CCC(c2ncc(-c3cnc(N)c(OCc4cccc(C#CC(C)(C)O)c4)c3)s2)CC1,,,,,,< 100 nM,< 1000 nM
